Measurements: paper PMC10649008 (Antimicrobial Agents and Chemotherapy, 2023)
Read-outs that look alike come from different tables or passages of the source.

Columns and labels:
[1] = Single-dose plasma pharmacokinetics of telavancin in pediatric subjects (noncompartmental analysis); assay type: in vivo, human; conditions: single 10 mg/kg IV infusion over 60 min; for Tmax / Cmax / half-life: iv; for Tmax: median (minimum–maximum), read-out: T max (time at maximum concentration); for Cmax: read-out: C max (maximum plasma concentration); for half-life: read-out: T 1/2 (terminal elimination half-life) (converted)
Procedure: The drug was infused over 60 min on Day 1. Blood samples were collected at 1, 1.5, 2, 6, 12, and 24 h following the start of infusion for PK analysis.
Subjects with missing early PK samples were included in the PK population for plasma concentrations at each collected time point, but they were excluded from the PK modeling. […] The primary endpoints calculated from the plasma concentration-time data were maximum observed plasma concentration (C max), time to reach maximum plasma concentration (T max), area under the plasma concentration versus time curve from time 0 to the last sample with measurable analyte concentration (AUC0-last), area under the concentration versus time curve extrapolated to infinity (AUCinf), and terminal elimination half-life (T 1/2). CL and apparent steady-state volume of distribution (Vss) were also calculated from the plasma concentration-time data. PK parameters were calculated using noncompartmental analysis with Phoenix WinNonlin v8.1 (Certara, Princeton, NJ, USA).
For calculation of mean concentrations at each time point and generation for mean concentration versus time profiles, all values below the limit of quantification (BLQ) were set to 0. […] For the NCA, actual infusion durations and actual sampling times were used. Infusion duration was calculated as the difference between the start of infusion time and the end of infusion time. Actual sampling times were calculated as the difference between the start of infusion time and the sampling time.
For PK analysis and individual concentration versus time plots, a concentration that was BLQ was assigned a value of 0, if it occurred in a profile before the first measurable concentration and was set to missing thereafter, if two BLQ values occurred in succession after C max, the profile was deemed to have terminated at the first BLQ value, and any subsequent concentrations were omitted from PK calculations.

[2] = Excerpt: All study procedures were reviewed and approved by the respective Institutional Review Board for each study site. Prior to any study procedures, written informed consent from a parent or legal guardian and assent (if appropriate for older patients) were obtained. The patient population consisted of subjects aged >12 months to <17 years of age who required systemic antibiotic therapy for the treatment or prevention of known or suspected bacterial infection. Subjects were enrolled into four cohorts stratified by age: adolescents (12–17 years of age), older children (6–11 years of age), younger children (2–5 years of age), and infants (1–2 years of age). […] The study consisted of a screening period followed by a treatment period and a safety follow-up period through Day 8 ± 1 day.
Safety was monitored during both the screening and treatment periods by physical exams, vital signs, urinalysis, and clinical laboratory measures (complete blood count with differential, serum chemistry, creatinine, and liver enzymes); AEs and concomitant medications were recorded from screening through follow-up on Day 8 (± 1 day). Medical and medication history and demographics were collected at screening. Vital signs (heart rate, blood pressure, respiratory rate, and body temperature) were collected at screening, Days 1 and 2 of the study.

[3] = Cohort 2 (6–11 years), N = 6, plasma, noncompartmental, mean ± SD
[4] = Cohort 3 (2–5 years), N = 1, plasma, noncompartmental
[5] = human, in vivo, 10 mg/kg, Cohort 1 (12–17 years), N = 13, plasma, mean ± SD
[6] = human, in vivo, 10 mg/kg, Cohort 2 (6–11 years), N = 6, plasma, mean ± SD
[7] = Cohort 1 (12–17 years), of 16 AEs, single 10 mg/kg IV

With `CCCCCCCCCCNCCN[C@@]1(C)C[C@H](O[C@H]2[C@H](Oc3c4cc5cc3Oc3ccc(cc3Cl)[C@@H](O)[C@@H](NC(=O)[C@@H](CC(C)C)NC)C(=O)N[C@@H](CC(N)=O)C(=O)N[C@H]5C(=O)N[C@H]3C(=O)N[C@H](C(=O)N[C@H](C(=O)O)c5cc(O)c(CNCP(=O)(O)O)c(O)c5-c5cc3ccc5O)[C@H](O)c3ccc(c(Cl)c3)O4)O[C@H](CO)[C@@H](O)[C@@H]2O)O[C@@H](C)[C@H]1O` [telavancin] the “Mean plasma telavancin concentration” value ([1]; Cohort 1 (12–17 years), N = 13–14, nominal time 1 h after start of infusion, mean ± SD) was 58.1 ± 8.38, the “Mean plasma telavancin concentration” value ([1]; Cohort 1 (12–17 years), N = 13–14, nominal time 1.5 h, mean ± SD) was 46.2 ± 7.01 and the “Mean plasma telavancin concentration” value ([1]; Cohort 1 (12–17 years), N = 13–14, nominal time 2 h, mean ± SD) was 37.4 ± 5.26. The “Mean plasma telavancin concentration” value ([1]; Cohort 1 (12–17 years), N = 13–14, nominal time 6 h, mean ± SD) was 19.8 ± 3.58, the “Mean plasma telavancin concentration” value ([1]; Cohort 1 (12–17 years), N = 13–14, nominal time 12 h, mean ± SD) was 8.84 ± 3.51 and the “Mean plasma telavancin concentration” value ([1]; Cohort 1 (12–17 years), N = 13–14, nominal time 24 h, mean ± SD) was 2.14 ± 0.922. The “CL (clearance)” value ([1]; Cohort 2 (6–11 years), N = 6, mean ± SD) was 0.5 ± 0.135 mL/min/kg, the “AUC0-inf (area under the curve extrapolated to infinity)” value [1, 3] was 351 ± 79.7 µg·h/mL and the “AUC0-last (area under the curve from time zero until the last PK sample)” value [1, 3] was 333 ± 74.2 µg·h/mL. For the same compound, the “Mean plasma telavancin concentration” value ([1]; Cohort 2 (6–11 years), N = 6–7, nominal time 1 h after start of infusion, mean ± SD) was 60.1 ± 11.9, the “Mean plasma telavancin concentration” value ([1]; Cohort 2 (6–11 years), N = 6–7, nominal time 1.5 h, mean ± SD) was 48.4 ± 8.66 and the “Mean plasma telavancin concentration” value ([1]; Cohort 2 (6–11 years), N = 6–7, nominal time 2 h, mean ± SD) was 41.9 ± 7.65. For the same compound, the “Mean plasma telavancin concentration” value ([1]; Cohort 2 (6–11 years), N = 6–7, nominal time 6 h, mean ± SD) was 20.7 ± 3.64, the “Mean plasma telavancin concentration” value ([1]; Cohort 2 (6–11 years), N = 6–7, nominal time 12 h, mean ± SD) was 9.20 ± 2.50 and the “Mean plasma telavancin concentration” value ([1]; Cohort 2 (6–11 years), N = 6–7, nominal time 24 h, mean ± SD) was 2.08 ± 1.23. The “CL (clearance)” value ([1]; Cohort 3 (2–5 years), N = 1) was 0.728 mL/min/kg, the “T max (time at maximum concentration)” value ([1]; Cohort 3 (2–5 years), N = 1) was 1.18 h and the “Mean plasma telavancin concentration” value ([1]; Cohort 3 (2–5 years), N = 1, nominal time 1 h after start of infusion) was 53.1. The “Mean plasma telavancin concentration” value ([1]; Cohort 3 (2–5 years), N = 1, nominal time 1.5 h) was 45.0, the “Mean plasma telavancin concentration” value ([1]; Cohort 3 (2–5 years), N = 1, nominal time 2 h) was 37.3 and the “Mean plasma telavancin concentration” value ([1]; Cohort 3 (2–5 years), N = 1, nominal time 6 h) was 18.0. For the same compound, the “Mean plasma telavancin concentration” value ([1]; Cohort 3 (2–5 years), N = 1, nominal time 12 h) was 2.67, the “Mean plasma telavancin concentration” value ([1]; Cohort 3 (2–5 years), N = 1, nominal time 24 h) was 0.146 and the “C max (maximum plasma concentration)” value ([1]; Cohort 3 (2–5 years), N = 1, plasma) was 53.1 µg/mL. The “T 1/2 (terminal elimination half-life)” value ([1]; Cohort 3 (2–5 years), N = 1, plasma, 10 mg/kg) was 2.73 h, the “AUC0-inf (area under the curve extrapolated to infinity)” value [1, 4] was 229 µg·h/mL and the “AUC0-last (area under the curve from time zero until the last PK sample)” value [1, 4] was 228 µg·h/mL. For the same compound, the Tmax ([1]; human, in vivo, 10 mg/kg, Cohort 1 (12–17 years), N = 13) was 1.02 h, the Cmax [1, 5] was 58.3 ± 8.4 µg/mL and the half-life [1, 5] was 5.6 ± 1.01 h. It also gave a Tmax ([1]; human, in vivo, 10 mg/kg, Cohort 2 (6–11 years), N = 6) of 1.09 h, a Cmax [1, 6] of 60.1 ± 11.9 µg/mL and a half-life [1, 6] of 5.19 ± 0.751 h. It also gave a clearance ([1]; human, in vivo, Cohort 1 (12–17 years), N = 13, mean ± SD, read-out: CL (clearance) (converted)) of 0.497 mL/min/kg, an AUC(0-inf) ([1]; human, in vivo, Cohort 1 (12–17 years), N = 13, plasma, noncompartmental, mean ± SD, read-out: AUC0-inf (area under the curve extrapolated to infinity)) of 345 ± 58.5 µg·h/mL and an AUC(0-t) ([1]; human, in vivo, Cohort 1 (12–17 years), N = 13, plasma, noncompartmental, mean ± SD, read-out: AUC0-last (area under the curve from time zero until the last PK sample)) of 326 ± 50 µg·h/mL. The “Number of adverse events” value ([2]; Cohort 1 (12–17 years), N = 14, across six patients, single 10 mg/kg IV) was 16, the “Adverse events deemed probably related to telavancin administration” value ([2]; Cohort 1 (12–17 years), fifteen of the 16 events) was 94% and the “Number of adverse events mild in severity” value [2, 7] was 13. The “Number of adverse events moderate in severity” value [2, 7] was 3, the “Number of adverse events” value ([2]; Cohort 2 (6–11 years), N = 7, across four patients, single 10 mg/kg IV) was 11 and the “Number of adverse events mild in severity” value ([2]; Cohort 2 (6–11 years), of 11 AEs, single 10 mg/kg IV) was “nine”.
